# Data: paper PMC10303200 (ACS Central Science, 2023)
# Several values for one entry are separate records, joined by “and”; a condition that tells them apart may be missing. Identical values can stand only once. Like-named read-outs stand apart in the source and are kept apart here.
# Legend:
# Sig7-Fc = Sig7-Fc (Homo sapiens, UniProt Q9Y286); assay: COIN-CaR-nMS with purified oligosaccharides listed beside the library glycans, 200 mM ammonium acetate, pH 6.9.; assay type: binding; set-up: gene SIGLEC7; residues 1-345, human IgG1 Fc fusion and C-terminal His6, from CHO cells, MW 150 kDa; conditions: SD; read-out: Kd, purified oligosaccharides in Tables S12, S13, S18, S19
# Sequence of Sig7-Fc (Q9Y286 1-345): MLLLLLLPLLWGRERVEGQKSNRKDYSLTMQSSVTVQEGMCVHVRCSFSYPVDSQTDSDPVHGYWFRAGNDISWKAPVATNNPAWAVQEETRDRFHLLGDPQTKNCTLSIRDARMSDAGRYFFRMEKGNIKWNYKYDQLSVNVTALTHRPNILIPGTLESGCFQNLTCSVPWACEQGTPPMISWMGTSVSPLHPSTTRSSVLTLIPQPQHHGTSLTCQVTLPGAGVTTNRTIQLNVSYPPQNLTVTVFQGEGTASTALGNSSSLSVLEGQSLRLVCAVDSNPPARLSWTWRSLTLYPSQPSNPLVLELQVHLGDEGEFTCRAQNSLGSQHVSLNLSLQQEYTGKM
# MAA [1] = target: T1, MAA; assay: as above; assay type: binding; conditions: SD; read-out: Kd, purified oligosaccharides in Tables S12, S13, S18, S19
# T1 construct: commercial lectin mixture
# [2] = target: RCA-I (Ricinus communis agglutinin) (Ricinus communis, UniProt P06750); assay type: binding
# GAL-3C [3] = target: T2, GAL-3C (Homo sapiens, UniProt P17931); assay: Literature reference values quoted in the results table, conditions not restated.; assay type: binding; set-up: gene LGALS3; C-terminal carbohydrate recognition domain fragment, residues 107-250; conditions: SD; read-out: Kd (Literature), Table S2; cited from earlier work
# T2 sequence (P17931 107-250): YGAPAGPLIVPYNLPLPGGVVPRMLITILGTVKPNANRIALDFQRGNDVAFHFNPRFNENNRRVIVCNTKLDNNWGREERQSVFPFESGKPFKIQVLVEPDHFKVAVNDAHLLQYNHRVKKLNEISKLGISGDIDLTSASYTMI
# GAL-3C [4] = target: T2, GAL-3C; assay: COIN-nMS, global fit over several glycan concentrations, 200 mM ammonium acetate, pH 6.9, 25 °C.; assay type: binding; set-up: gene LGALS3; C-terminal carbohydrate recognition domain fragment, residues 107-250; conditions: SD; read-out: Kd (COIN-nMS, global fit), Table S2
# GAL-3C [5] = target: T2, GAL-3C; assay: COIN-nMS (slow mixing in nanoESI emitter, fit of eq 12) at one glycan concentration, 200 mM ammonium acetate, pH 6.9, 25 °C.; assay type: binding; set-up: gene LGALS3; C-terminal carbohydrate recognition domain fragment, residues 107-250; conditions: SD; read-out: Kd (COIN-nMS, individual experiments), Table S2
# GAL-3C [6] = target: T2, GAL-3C; assay: Direct native ESI-MS at known concentrations with single glycans, 200 mM ammonium acetate, pH 6.9, 25 °C.; assay type: binding; set-up: gene LGALS3; C-terminal carbohydrate recognition domain fragment, residues 107-250; conditions: SD; read-out: Kd (nMS), Table S2
# Siglec-7 = conditions: ITC; cited from earlier work
# GAL-3C [7] = target: T2, GAL-3C; assay: direct nMS (ESI-MS) affinity measurement at known concentrations; assay type: binding; set-up: human Galectin-3 (GAL-3C, residues 107–250, molecular weight (MW) 16 327 Da); key: NB: No binding detected; conditions: glycans present as a mixture (G2, G5-G13); pH 6.9
# GAL-7 homodimer [8] = target: T3, GAL-7 homodimer (Homo sapiens, UniProt P47929); assay: COIN-nMS affinity measurement; assay type: binding; set-up: key: NB: No binding detected; conditions: glycans present as a mixture (G2, G5-G13); average of eight measurements; pH 6.9
# T3 construct: made in house
# T3 sequence (P47929 whole entry): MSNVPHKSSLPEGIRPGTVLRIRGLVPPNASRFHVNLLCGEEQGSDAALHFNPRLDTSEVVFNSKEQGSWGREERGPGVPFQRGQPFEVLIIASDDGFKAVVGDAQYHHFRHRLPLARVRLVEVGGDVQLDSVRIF
# GAL-7 homodimer [9] = target: T3, GAL-7 homodimer; assay: direct nMS affinity measurement; assay type: binding; set-up: key: NB: No binding detected; conditions: glycans present as a mixture (G2, G5-G13); pH 6.9
# GAL-3C [10] = target: T2, GAL-3C; assay: COIN-nMS affinity measurement; assay type: binding; set-up: human Galectin-3 (GAL-3C, residues 107–250, molecular weight (MW) 16 327 Da); key: NB: No binding detected; conditions: glycans present as a mixture (G2, G5-G13); average of eight measurements; pH 6.9
# MAA [11] = target: T1, MAA; assay: COIN-CaR-nMS (collisional release of bound glycan, fit of eq 13) with single purified glycans, 200 mM ammonium acetate, pH 6.9.; assay type: binding; conditions: SD; read-out: Kd (COIN-CaR-nMS), Table S6
# MAA [12] = target: T1, MAA; assay: Isothermal titration calorimetry, 200 mM ammonium acetate, pH 6.8-6.9, 25 °C.; assay type: binding; conditions: SD; read-out: Kd (Literature), Table S6, determined by ITC
# GAL-3C [13] = target: T2, GAL-3C; assay: Direct native ESI-MS with a mixture of ten glycans (G2, G5-G13), 200 mM ammonium acetate, pH 6.9.; assay type: binding; set-up: gene LGALS3; C-terminal carbohydrate recognition domain fragment, residues 107-250; conditions: SD, n = 8; read-out: Kd (nMS), Table S3
# GAL-7 [14] = target: T4, GAL-7 (Homo sapiens, UniProt P47929); assay: COIN-nMS of the GAL-7 homodimer with a mixture of ten glycans (G2, G5-G13), 200 mM ammonium acetate, pH 6.9.; assay type: binding; conditions: SD, n = 8; read-out: Kd (COIN-nMS), Table S4
# T4 construct: gene LGALS7; homodimer (monomer MW 14.94 kDa)
# T4 sequence (P47929 whole entry): as above
# DC-SIGN CRD [15] = target: T5, DC-SIGN CRD (Homo sapiens, UniProt Q9NNX6); assay: COIN-nMS (submicron emitters) with a mixture of ten glycans (G2, G5, G10, G14-G20), 200 mM ammonium acetate with 2.5 mM calcium salt, pH 7.4.; assay type: binding; set-up: gene CD209; carbohydrate recognition domain, residues 250-404, MW 17 794 Da; conditions: SD, n = 6; read-out: Kd (COIN-nMS), Table S5
# T5 sequence (Q9NNX6 250-404): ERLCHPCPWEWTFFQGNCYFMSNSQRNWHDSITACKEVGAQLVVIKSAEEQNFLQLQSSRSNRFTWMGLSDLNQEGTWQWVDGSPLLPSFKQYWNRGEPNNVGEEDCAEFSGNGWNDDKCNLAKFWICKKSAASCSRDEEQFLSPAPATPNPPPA
# GAL-7 [16] = target: T4, GAL-7; assay: Direct native ESI-MS of the GAL-7 homodimer with a mixture of ten glycans (G2, G5-G13), 200 mM ammonium acetate, pH 6.9.; assay type: binding; conditions: SD, n = 8; read-out: Kd (nMS), Table S4
# GAL-3C [17] = target: T2, GAL-3C; assay: COIN-nMS with a mixture of ten glycans (G2, G5-G13), 200 mM ammonium acetate, pH 6.9.; assay type: binding; set-up: gene LGALS3; C-terminal carbohydrate recognition domain fragment, residues 107-250; conditions: SD, n = 8; read-out: Kd (COIN-nMS), Table S3
# DC-SIGN CRD [18] = target: T5, DC-SIGN CRD; assay: Direct native ESI-MS (submicron emitters) with a mixture of ten glycans (G2, G5, G10, G14-G20), 200 mM ammonium acetate with 2.5 mM calcium salt, pH 7.4.; assay type: binding; set-up: gene CD209; carbohydrate recognition domain, residues 250-404, MW 17 794 Da; conditions: SD, n = 6; read-out: Kd (nMS), Table S5
# GAL-7 [19] = target: T4, GAL-7; assay: COIN-nMS (slow mixing in nanoESI emitter, fit of eq 12) at one glycan concentration, 200 mM ammonium acetate, pH 6.9, 25 °C.; assay type: binding; conditions: SD; read-out: Kd (COIN-nMS, individual experiments), Table S2
# GAL-7 [20] = target: T4, GAL-7; assay: Direct native ESI-MS at known concentrations with single glycans, 200 mM ammonium acetate, pH 6.9, 25 °C.; assay type: binding; conditions: SD; read-out: Kd (nMS), Table S2
# GAL-7 [21] = target: T4, GAL-7; assay: COIN-nMS, global fit over several glycan concentrations, 200 mM ammonium acetate, pH 6.9, 25 °C.; assay type: binding; conditions: SD; read-out: Kd (COIN-nMS, global fit), Table S2
compound,measurement,setting,value
"CC(=O)N[C@H]1[C@H]([C@H](O)[C@H](O)CO)O[C@@](O[C@H]2[C@@H](O)[C@@H](CO)O[C@@H](O[C@H]3[C@H](O)[C@@H](NC(C)=O)C(O)O[C@@H]3CO)[C@@H]2O)(C(=O)O)C[C@@H]1O (stereo partly drawn) [G25, 3SLN, α-D-Neu5Ac-(2→3)-β-D-Gal-(1→4)-D-GlcNAc]",Kd,Sig7-Fc,267 µM
same,Kd,MAA [1],2.14 µM
CC(=O)N[C@H]1[C@H](O[C@H]2[C@H](O)[C@@H](NC(C)=O)C(O)O[C@@H]2CO)O[C@H](CO)[C@@H](O[C@@H]2O[C@H](CO[C@H]3O[C@H](CO)[C@@H](O)[C@H](O)[C@@H]3O[C@@H]3O[C@H](CO)[C@@H](O[C@@H]4O[C@H](CO)[C@H](O)[C@H](O)[C@H]4O)[C@H](O)[C@H]3NC(C)=O)[C@@H](O)[C@H](O[C@H]3O[C@H](CO)[C@@H](O)[C@H](O)[C@@H]3O[C@@H]3O[C@H](CO)[C@@H](O[C@@H]4O[C@H](CO)[C@H](O)[C@H](O)[C@H]4O)[C@H](O)[C@H]3NC(C)=O)[C@@H]2O)[C@@H]1O (some centres unmarked) [HexNAc4Hex5],Kd,[2]; read-out: Kd (Native); pH 6.9,1.22 ± 0.03 µM
"CC(=O)N[C@H]1C(O)O[C@H](CO)[C@@H](O[C@@H]2O[C@H](CO)[C@H](O)[C@H](O[C@H]3O[C@H](CO)[C@H](O)[C@H](O)[C@H]3O)[C@H]2O[C@@H]2O[C@@H](C)[C@@H](O)[C@@H](O)[C@@H]2O)[C@@H]1O (stereo partly drawn) [G1, α-D-Gal-(1→3)-[α-L-Fuc(1→2)]-β-D-Gal(1→4)-D-GlcNAc]",Kd,GAL-3C [3],4.5 µM
same,Kd,GAL-3C [4],3.8 µM
same,Kd,GAL-3C [5],3.2 µM and 3.7 µM and 5.8 µM
same,Kd,GAL-3C [6],4.2 µM
CC(=O)N[C@H]1[C@H](O[C@H]2[C@H](O)[C@@H](NC(C)=O)C(O)O[C@@H]2CO[C@@H]2O[C@@H](C)[C@@H](O)[C@@H](O)[C@@H]2O)O[C@H](CO)[C@@H](O[C@@H]2O[C@H](CO[C@H]3O[C@H](CO)[C@@H](O)[C@H](O)[C@@H]3O[C@@H]3O[C@H](CO)[C@@H](O[C@@H]4O[C@H](CO)[C@H](O)[C@H](O)[C@H]4O)[C@H](O)[C@H]3NC(C)=O)[C@@H](O)[C@H](O[C@H]3O[C@H](CO)[C@@H](O)[C@H](O)[C@@H]3O[C@@H]3O[C@H](CO)[C@@H](O[C@@H]4O[C@H](CO)[C@H](O)[C@H](O)[C@H]4O)[C@H](O)[C@H]3NC(C)=O)[C@@H]2O)[C@@H]1O (some centres unmarked) [HexNAc4Hex5Fuc1],Kd,[2]; pH 6.9; read-out: Kd (Native),1.4 ± 0.4 µM
"CC(=O)N[C@H]1[C@H]([C@H](O)[C@H](O)CO)O[C@@](O[C@H](CO)[C@@H](O)[C@@H]2O[C@@](O[C@H]3[C@@H](O)[C@@H](CO)O[C@@H](O[C@H]4[C@H](O)[C@@H](O)C(O)O[C@@H]4CO)[C@@H]3O)(C(=O)O)C[C@H](O)[C@H]2NC(C)=O)(C(=O)O)C[C@@H]1O (stereo partly drawn) [GD3, α-D-Neu5Ac-(2→8)-α-D-Neu5Ac-(2→3)-β-D-Gal-(1→4)-D-Glc]",Kd,Siglec-7,98 µM
β-D-Gal(1→3)-[α-L-Fuc(1→4)]-β-D-GlcNAc(1→3)-β-D-Gal(1→4)-[α-L-Fuc(1→3)]-β-D-Glc [Glycan G11],Kd (nMS),GAL-3C [7],NB
same,Kd (COIN-nMS),GAL-7 homodimer [8],NB and do not bind
same,Kd (nMS),GAL-7 homodimer [9],NB
same,Kd (COIN-nMS),GAL-3C [10],NB and do not bind
"CC(=O)N[C@H]1[C@H]([C@H](O)[C@H](O)CO)O[C@@](O[C@H]2[C@@H](O)[C@@H](CO)O[C@@H](O[C@H]3[C@H](O)[C@@H](O)C(O)O[C@@H]3CO)[C@@H]2O)(C(=O)O)C[C@@H]1O (stereo partly drawn) [G22, 3SL, 3'-sialyllactose, α-D-Neu5Ac-(2→3)-β-D-Gal-(1→4)-D-Glc]",Kd,MAA [11],3.5 µM
same,Kd,Sig7-Fc,277 µM
same,Kd,MAA [12],3.6 µM
"C[C@@H]1O[C@@H](O[C@H]2[C@H](O[C@H]3[C@H](O)[C@@H](O)C(O)O[C@@H]3CO)O[C@H](CO)[C@H](O)[C@@H]2O)[C@@H](O)[C@H](O)[C@@H]1O (stereo partly drawn) [G2, α-L-Fuc-(1→2)-β-D-Gal-(1→4)-D-Glc (2'-fucosyllactose)]",Kd,GAL-3C [13],166 µM
same,Kd,GAL-3C [3],47.6 µM
same,Kd,GAL-3C [4],23.2 µM
same,Kd,GAL-7 [14],241 µM
same,Kd,DC-SIGN CRD [15],660 µM
same,Kd,GAL-7 [16],237 µM
same,Kd,GAL-3C [5],27 µM and 24.8 µM and 28 µM
same,Kd,GAL-3C [17],156 µM
same,Kd,DC-SIGN CRD [18],2100 µM
same,Kd,GAL-3C [6],26.6 µM
"CC(=O)N[C@H]1[C@H](O[C@H]2[C@@H](O)[C@@H](CO)O[C@@H](O[C@H]3[C@H](O[C@@H]4O[C@@H](C)[C@@H](O)[C@@H](O)[C@@H]4O)[C@@H](O)C(O)O[C@@H]3CO)[C@@H]2O)O[C@H](CO)[C@@H](O[C@@H]2O[C@H](CO)[C@H](O)[C@H](O)[C@H]2O)[C@@H]1O[C@@H]1O[C@@H](C)[C@@H](O)[C@@H](O)[C@@H]1O (stereo partly drawn) [G3, Gal-(1→4)-[α-L-Fuc(1→3)]-β-D-GlcNAc-(1→3)-β-D-Gal(1→4)[α-L-Fuc(1→3)]-D-Glc]",Kd,GAL-7 [19],524 µM and 507 µM and 537 µM
same,Kd,GAL-7 [20],518 µM
same,Kd,GAL-7 [21],521 µM
